pIC50, pKd, pKi: −log10 of the molar value.
What was measured:
ZR-75-1 = assay: Antiproliferative activity against human ZR-75-1 cells assessed as reduction in cell viability measured for 72 hrs by CCK-8 assay; type: functional, cell-based; settings: ZR-75-1, 72 h
[1] = target: T1, D-3-phosphoglycerate dehydrogenase (Homo sapiens, UniProt O43175); assay: Competitive inhibition of PHGDH (unknown origin) assessed as inhibition constant using NAD+ as substrate preincubated for 30 mins followed by substrate addition and measured after 5 mins by Lineweaver-Burk plot analysis
T1 sequence (O43175 whole entry): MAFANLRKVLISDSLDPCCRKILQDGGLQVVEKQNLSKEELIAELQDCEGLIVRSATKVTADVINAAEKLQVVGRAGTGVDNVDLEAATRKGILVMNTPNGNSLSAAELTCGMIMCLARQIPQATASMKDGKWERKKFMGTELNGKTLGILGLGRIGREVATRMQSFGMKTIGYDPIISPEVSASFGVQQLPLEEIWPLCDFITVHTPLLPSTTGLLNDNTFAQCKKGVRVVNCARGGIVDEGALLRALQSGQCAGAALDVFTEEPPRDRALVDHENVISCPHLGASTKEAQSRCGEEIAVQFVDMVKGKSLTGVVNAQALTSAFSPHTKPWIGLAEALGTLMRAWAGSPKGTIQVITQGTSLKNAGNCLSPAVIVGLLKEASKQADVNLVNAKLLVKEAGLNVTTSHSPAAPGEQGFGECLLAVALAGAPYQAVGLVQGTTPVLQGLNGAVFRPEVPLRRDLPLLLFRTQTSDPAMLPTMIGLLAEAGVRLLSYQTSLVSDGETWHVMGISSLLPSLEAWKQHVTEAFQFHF

MCF-10A = assay: Antiproliferative activity against human MCF-10A cells assessed as reduction in cell viability measured for 72 hrs by CCK-8 assay; type: functional, cell-based
[2] = Observed clearance in ICR mouse at 1 mg/kg, iv measured for 0.05 to 24 hrs by UPLC-MS/MS analysis; type: ADME, organism-based; settings: in vivo, time 0.05-24 hrs
[3] = target: D-3-phosphoglycerate dehydrogenase (Homo sapiens, UniProt O43175, D175A); assay: Inhibition of PHGDH D175A mutant (unknown origin) preincubated for 30 mins followed by substrate addition and measured after 5 mins
[4] = Drug exposure in BALB/c nude mouse plasma at 25 mg/kg, ip measured for 0.5 to 4 hrs; type: ADME, organism-based; settings: in vivo, time 0.5-4 hrs
[5] = Microsomal stability in rat liver microsomes assessed as intrinsic clearance measured upto 60 mins by HPLC-MS/MS analysis; type: ADME, Microsome; settings: 1 h
[6] = AUClast in ICR mouse at 1 mg/kg, iv measured for 0.05 to 24 hrs by UPLC-MS/MS analysis; type: ADME, organism-based; set-up: time upper 24 hrs, dose 1 mg/kg, time lower 0.05 hrs, route iv; settings: in vivo
[7] = AUClast in ICR mouse at 3 mg/kg, po measured for 0.25 to 24 hrs by UPLC-MS/MS analysis; type: ADME, organism-based; set-up: dose 3 mg/kg, time 0.25-24 hrs, route po; settings: in vivo
[8] = Tmax in ICR mouse at 3 mg/kg, po measured for 0.25 to 24 hrs by UPLC-MS/MS analysis; type: ADME, organism-based; settings: in vivo, time 0.25-24 hrs
PC-9 [9] = assay: Antitumor activity against human PC-9 cells xenografted in BALB/c nude mouse assessed as tumor growth inhibition at 25 mg/kg, ip administered every day for 31 days by digital vernier caliper analysis; type: functional; settings: time 31 day
[10] = Half life in ICR mouse at 3 mg/kg, po measured for 0.25 to 24 hrs by UPLC-MS/MS analysis; type: ADME, organism-based; settings: in vivo, time 0.25-24 hrs
[11] = Toxicity in BALB/c nude mouse xenografted with human PC-9 cells assessed as loss of body weight at 25 mg/kg, ip administered every day for 31 days; type: organism-based; settings: in vivo, 744 h, time 31 day
PC-9 [12] = assay: Antitumor activity against human PC-9 cells xenografted in BALB/c nude mouse assessed as tumor growth inhibition at 12.5 mg/kg, ip administered every day for 31 days by digital vernier caliper analysis; type: functional; settings: time 31 day
[13] = target: T1, D-3-phosphoglycerate dehydrogenase; assay: Binding affinity to PHGDH (unknown origin) assessed as dissociation constant incubated for 60 mins by microscale thermophoresis analysis
[14] = target: T1, D-3-phosphoglycerate dehydrogenase; assay: Inhibition of wild type PHGDH (unknown origin) preincubated for 30 mins followed by substrate addition and measured after 5 mins
[15] = Oral bioavailability in ICR mouse at 3 mg/kg measured for 0.25 to 24 hrs by UPLC-MS/MS analysis; type: ADME, organism-based; settings: in vivo, time 0.25-24 hrs
[16] = Cmax in ICR mouse at 3 mg/kg, po measured for 0.25 to 24 hrs by UPLC-MS/MS analysis; type: ADME, organism-based; set-up: dose 3 mg/kg, time 0.25-24 hrs, route po; settings: in vivo
[17] = Half life in ICR mouse at 1 mg/kg, iv measured for 0.05 to 24 hrs by UPLC-MS/MS analysis; type: ADME, organism-based; settings: in vivo, time 0.05-24 hrs
[18] = target: T1, D-3-phosphoglycerate dehydrogenase; assay: Competitive inhibition of PHGDH (unknown origin) assessed as inhibition constant using 3-PG as substrate preincubated for 30 mins followed by substrate addition and measured after 5 mins by Lineweaver-Burk plot analysis
MCF7 = assay: Antiproliferative activity against human MCF7 cells assessed as reduction in cell viability measured for 72 hrs by CCK-8 assay; type: functional, cell-based; settings: MCF7, 72 h
[19] = Toxicity in BALB/c nude mouse xenografted with human PC-9 cells assessed as abnormalities in liver at 25 mg/kg, ip administered every day for 31 days by H and E staining based assay; type: organism-based; settings: in vivo, 744 h, time 31 day
[20] = target: T1, D-3-phosphoglycerate dehydrogenase; assay: Binding affinity to his-tagged PHGDH ([…] residues) (unknown origin) assessed as dissociation constant by SPR analysis
[21] = target: T1, D-3-phosphoglycerate dehydrogenase; assay: Inhibition of PHGDH (unknown origin) preincubated for 30 mins followed by substrate addition and measured after 5 mins
[22] = Microsomal stability in mouse liver microsomes assessed as half life measured upto 60 mins by HPLC-MS/MS analysis; type: ADME, Microsome
BT-20 = assay: Antiproliferative activity against human BT-20 cells expressing PHGDH assessed as reduction in cell viability measured for 72 hrs by CCK-8 assay; type: functional, cell-based; settings: BT-20, 72 h
HCC827 = assay: Antiproliferative activity against human HCC827 cells expressing PHGDH assessed as reduction in cell viability measured for 72 hrs by CCK-8 assay; type: functional, cell-based; settings: HCC827, 72 h
PANC-1 = assay: Antiproliferative activity against human PANC-1 cells assessed as reduction in cell viability measured for 72 hrs by CCK-8 assay; type: functional, cell-based; settings: PANC-1, 72 h
[23] = Toxicity in BALB/c nude mouse xenografted with human PC-9 cells assessed as abnormalities in lung at 25 mg/kg, ip administered every day for 31 days by H and E staining based assay; type: organism-based; settings: in vivo, 744 h, time 31 day
MDA-MB-468 = assay: Antiproliferative activity against human MDA-MB-468 cells expressing PHGDH assessed as reduction in cell viability measured for 72 hrs by CCK-8 assay; type: functional, cell-based; settings: MDA-MB-468, 72 h
HCT-116 = assay: Antiproliferative activity against human HCT-116 cells expressing PHGDH assessed as reduction in cell viability measured for 72 hrs by CCK-8 assay; type: functional, cell-based; settings: HCT-116, 72 h
MDA-MB-231 = assay: Antiproliferative activity against human MDA-MB-231 cells assessed as reduction in cell viability measured for 72 hrs by CCK-8 assay; type: functional, cell-based; settings: MDA-MB-231, 72 h
[24] = Toxicity in BALB/c nude mouse xenografted with human PC-9 cells assessed as abnormalities in kidney at 25 mg/kg, ip administered every day for 31 days by H and E staining based assay; type: organism-based; settings: in vivo, 744 h, time 31 day
[25] = Microsomal stability in human liver microsomes assessed as intrinsic clearance measured upto 60 mins by HPLC-MS/MS analysis; type: ADME, Microsome; settings: 1 h
[26] = Microsomal stability in human liver microsomes assessed as half life measured upto 60 mins by HPLC-MS/MS analysis; type: ADME, Microsome
NCI-H1975 = assay: Antiproliferative activity against human NCI-H1975 cells expressing PHGDH assessed as reduction in cell viability measured for 72 hrs by CCK-8 assay; type: functional, cell-based; settings: NCI-H1975, 72 h
[27] = Microsomal stability in mouse liver microsomes assessed as intrinsic clearance measured upto 60 mins by HPLC-MS/MS analysis; type: ADME, Microsome; settings: 1 h
PC-9 [28] = assay: Antiproliferative activity against human PC-9 cells expressing PHGDH assessed as reduction in cell viability measured for 72 hrs by CCK-8 assay; type: functional, cell-based; settings: PC-9, 72 h
[29] = Microsomal stability in rat liver microsomes assessed as half life measured upto 60 mins by HPLC-MS/MS analysis; type: ADME, Microsome
[30] = Drug exposure in BALB/c nude mouse tumor at 50 mg/kg, ip measured for 0.5 to 4 hrs; type: ADME, organism-based; settings: in vivo, time 0.5-4 hrs
NCI-H23 = assay: Antiproliferative activity against human NCI-H23 cells assessed as reduction in cell viability measured for 72 hrs by CCK-8 assay; type: functional, cell-based; settings: NCI-H23, 72 h

Chain of D-3-phosphoglycerate dehydrogenase (Homo sapiens, UniProt O43175, D175A) (O43175 2-533 D175A limits assumed): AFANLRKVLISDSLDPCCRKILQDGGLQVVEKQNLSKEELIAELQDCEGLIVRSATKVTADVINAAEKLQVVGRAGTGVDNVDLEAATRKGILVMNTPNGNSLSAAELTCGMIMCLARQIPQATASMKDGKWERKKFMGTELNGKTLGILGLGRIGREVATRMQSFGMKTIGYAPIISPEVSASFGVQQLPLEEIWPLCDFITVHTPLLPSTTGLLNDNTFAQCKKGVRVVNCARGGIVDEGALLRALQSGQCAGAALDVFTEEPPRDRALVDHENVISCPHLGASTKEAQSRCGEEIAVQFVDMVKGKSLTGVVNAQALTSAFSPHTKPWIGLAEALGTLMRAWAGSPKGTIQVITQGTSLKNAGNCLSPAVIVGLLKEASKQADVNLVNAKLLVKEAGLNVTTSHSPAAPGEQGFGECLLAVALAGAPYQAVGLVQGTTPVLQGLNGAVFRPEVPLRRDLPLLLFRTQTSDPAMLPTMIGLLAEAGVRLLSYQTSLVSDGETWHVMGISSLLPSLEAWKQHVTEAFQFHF

`CC(=O)c1cccc(NS(=O)(=O)c2ccc(C(=O)Nc3nc(-c4cccc(F)c4)cs3)cc2)c1` showed a pIC50 (ZR-75-1) of 4.42, a pKi [1] of 4.82 and a pIC50 (MCF-10A) of 4.28. For the same compound, the clearance [2] was 0.48 mL/min/kg, the pIC50 [3] was less than 4.30 and the concentration [4] was 30.8 µM. It also gave a CLH [5] of 56.6 mL/min/g, an AUClast [6] of 38358 ng·mL·h and an AUClast [7] of 94386 ng·mL·h. The Tmax [8] was 3.33 h, the TGI (PC-9 [9]) was 68.9% and the half-life [10] was 4.74 h. The Activity [11] was “Non-Toxic”, the TGI (PC-9 [12]) was 41.4% and the pKd [13] was 5.63. It also gave a pIC50 [14] of 5.55, a bioavailability [15] of 82% and a Cmax [16] of 8840 ng/mL. The half-life [17] was 4.94 h, the pKi [18] was 4.83 and the pIC50 (MCF7) was 4.41. The Activity [19] was “Non-Toxic”, the pKd [20] was 5.61 and the pIC50 [21] was 5.55. It also gave a half-life [22] of 1.45 h, a pIC50 (BT-20) of 5.28 and a pIC50 (HCC827) of 4.67. The pIC50 (PANC-1) was 4.44, the Activity [23] was “Non-Toxic” and the pIC50 (MDA-MB-468) was 5.28. For the same compound, the pIC50 (HCT-116) was 5.02, the pIC50 (MDA-MB-231) was 4.43 and the Activity [24] was “Non-Toxic”. It also gave a CLH [25] of 19.8 mL/min/g, a half-life [26] of 1.77 h and a pIC50 (NCI-H1975) of 5.21. It also gave a CLH [27] of 24.1 mL/min/g, a pIC50 (PC-9 [28]) of 5.46 and a half-life [29] of 0.618 h. The Drug uptake [30] was “Active” and the pIC50 (NCI-H23) was 4.54.

Reference: ChEMBL document CHEMBL5316299, “Discovery of Novel Drug-like PHGDH Inhibitors to Disrupt Serine Biosynthesis for Cancer Therapy” (J Med Chem, 2023)
